Test results published in patent US20220296628A1, “RNA COMBINATIONS AND COMPOSITIONS WITH DECREASED IMMUNOSTIMULATORY PROPERTIES” (CureVac AG, priority 2019, published 2022).

Legend:
[1] = system: human peripheral blood mononuclear cells (PBMCs); test: PBMC stimulation: DOTAP co-transfection of immunostimulatory non-coding RNA (RNAdjuvant) with oligonucleotide, cytokines by CBA; format: cell-based; conditions: DOTAP co-transfection with RNAdjuvant 1 μg/ml, oligonucleotide 0.25 μg/ml (25% weight), supernatant 24 hours, compared to immunostimulatory non-coding RNA only (FIG. 1A)
Description: Human peripheral blood mononuclear cells (PBMCs) were isolated from heparinized blood of healthy volunteers by standard Ficoll-Hypaque density gradient centrifugation (Ficoll 1.078 g/ml). PBMCs were re-suspended in RPMI 1640 supplemented with 10% heat-inactivated FCS. After counting, cells are re-suspended at 50 million cells per ml in fetal calf serum, 10% DMSO, and frozen. Before usage, the cells are thawed.
For transfection experiments, 2×10^5 human PBMCs per well were seeded into each well of a 96-well plate in X-Vivo 15 medium (Lonza). For preparation of DOTAP complexes containing both immunostimulatory non-coding RNA and a 2′-O-methylated oligonucleotide (SEQ ID NO: 85), the oligonucleotide was first added to immunostimulatory non-coding RNA at a weight percentage of 25%. For preparation of DOTAP complexes containing both PpLuc mRNA and a 2′-O-methylated oligonucleotide, the oligonucleotide was first added to PpLuc mRNA at a weight percentage of 25%. The molar ratio of PpLuc mRNA to oligonucleotide was thus […] (MW (Oligonucleotide)=2907 g/mol, MW (PpLuc mRNA)=652377 g/mol). DOTAP complexes containing either immunostimulatory non-coding RNA or PpLuc mRNA without or with oligonucleotide were formed at a ratio of 3 μl of DOTAP per 1 μg of RNAdjuvant or 1 μg of mRNA. […] To quantify background stimulation, PBMC were incubated either with DOTAP alone (“vehicle”) or medium only. […]
In supernatants collected from PBMC stimulated without or with 2-O-methylated oligonucleotide, the concentrations of IFN-α, IFN-γ, TNF, were measured by Cytometric Bead Array (CBA) according to the manufacturer's instructions (BD Biosciences) using the following kits: Human Soluble Protein Master Buffer Kit (catalog no. 558264), Assay Diluent (catalog no. 560104), Human IFN-α Flex Set (catalog no. 560379), Human IFN-γ Flex Set (catalog no. 558269), Human TNF Flex Set (catalog no. 560112); all kits from BD Biosciences. The data was analyzed using the FCAP Array v3.0 software (BD Biosciences).

mice (strain 129SV) = test: PpLuc expression in liver lysates after i.v. injection of LNP-formulated PpLuc mRNA with or without oligonucleotide; format: in vivo, mouse; conditions: 24 hours post i.v. injection, 10 μg or 30 μg mRNA (either dose), compared to PpLuc mRNA without oligonucleotide (FIG. 3)
Description: For preparation of Lipid nanoparticles (LNP) containing both PpLuc mRNA and 2-O-methylated oligonucleotide, first the 2′-O-methylated oligonucleotide was added to PpLuc mRNA at a weight percentage of either 20% or 6.7% (see Table 3). LNP containing PpLuc mRNA either with or without admixture of 2-O-methylated oligonucleotide were prepared using cationic lipid, cholesterol, PEG-lipid and a neutral lipid. The mRNA was diluted to 1 g/L in citrate buffer, pH 4. The ethanolic lipid solution was mixed with the aqueous RNA solution at a ratio of 1:3 (vol/vol) using a Nanoassemblr (PrecisionNanoSystems). The ethanol was then removed and the buffer replaced by 10 mM HEPES, pH 7.4 comprising 9% Sucrose by dialysis. Finally, the LNP-formulated RNA was adjusted to 0.2 g/L.
For in vivo experiments, 8 weeks old female mice (around 25 g, strain 129SV) were injected with the various LNP formulations (see tables 4 and 5). 4 animals were used per group. […]
To prepare tissue lysates, first a steal bead was added to each liver. […] Plates were introduced into a plate reader (Berthold Technologies TriStar2 LB 942) and 50 μl per well of Beetle-Juice (PJK GmbH) containing luciferin as substrate for firefly luciferase was injected. Luciferase activity was quantified as relative light units (RLU). […]

## 5′-GAG CGmG CCA-3′ (GAGCNGCCA; 2'-O-methyl guanosine at position 5; 9mer oligonucleotide; modified_base (5)..(5) n can be any nucleotide, wherein the nucleotide is 2-O-methylated, preferably a 2-O-methylated guanosine) [Gm18, 9-mer 2′-O-methylated RNA oligonucleotide; position 5 is 2′-O-methylated guanosine (Gm); antagonist of TLR7 and 8]
[1]
  secretion of cytokine INF-a: reduced secretion
  secretion of cytokine INF-y: reduced secretion
  secretion of cytokine TNF: reduced secretion
Mice (strain 129SV)
  expression of PpLuc in liver lysates (luciferase activity): increases the expression
